Experimental data from paper PMC11945486, “TAS1R2/TAS1R3 Single-Nucleotide Polymorphisms Affect Sweet Taste Receptor Activation by Sweeteners: The SWEET Project” (Nutrients, 2025).
Read-outs that look alike come from different tables or passages of the source. No end group written: not given here.

T1: human TAS1R2-WT/TAS1R3-F514L (Homo sapiens, UniProt Q7RTX0+Q8TE23, F514L)
T1 construct: expressed in transfected cells; host or cells: HEK293T stably expressing Gα16gust44
T1 sequence (Q8TE23 20-839): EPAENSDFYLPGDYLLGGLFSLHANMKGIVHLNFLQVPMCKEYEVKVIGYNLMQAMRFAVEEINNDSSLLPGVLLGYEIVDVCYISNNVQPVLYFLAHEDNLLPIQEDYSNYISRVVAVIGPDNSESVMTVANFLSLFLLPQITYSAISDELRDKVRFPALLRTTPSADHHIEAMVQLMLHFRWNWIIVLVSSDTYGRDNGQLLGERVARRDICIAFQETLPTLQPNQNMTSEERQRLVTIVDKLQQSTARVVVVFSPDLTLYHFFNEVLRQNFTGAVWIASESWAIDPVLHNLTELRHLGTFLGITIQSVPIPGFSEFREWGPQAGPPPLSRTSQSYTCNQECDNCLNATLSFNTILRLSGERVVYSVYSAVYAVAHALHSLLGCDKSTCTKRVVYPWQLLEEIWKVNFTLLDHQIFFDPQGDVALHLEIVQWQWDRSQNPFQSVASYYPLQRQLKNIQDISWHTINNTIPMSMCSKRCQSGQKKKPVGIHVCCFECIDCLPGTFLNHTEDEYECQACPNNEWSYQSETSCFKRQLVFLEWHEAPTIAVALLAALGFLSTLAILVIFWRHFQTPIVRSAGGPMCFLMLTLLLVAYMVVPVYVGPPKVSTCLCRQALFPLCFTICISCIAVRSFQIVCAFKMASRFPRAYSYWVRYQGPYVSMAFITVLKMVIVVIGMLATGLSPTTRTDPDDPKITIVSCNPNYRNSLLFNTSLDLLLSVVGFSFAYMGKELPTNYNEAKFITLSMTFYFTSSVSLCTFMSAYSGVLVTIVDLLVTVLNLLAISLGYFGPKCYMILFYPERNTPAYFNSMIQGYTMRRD
T1 sequence (Q7RTX0 21-852 F514L): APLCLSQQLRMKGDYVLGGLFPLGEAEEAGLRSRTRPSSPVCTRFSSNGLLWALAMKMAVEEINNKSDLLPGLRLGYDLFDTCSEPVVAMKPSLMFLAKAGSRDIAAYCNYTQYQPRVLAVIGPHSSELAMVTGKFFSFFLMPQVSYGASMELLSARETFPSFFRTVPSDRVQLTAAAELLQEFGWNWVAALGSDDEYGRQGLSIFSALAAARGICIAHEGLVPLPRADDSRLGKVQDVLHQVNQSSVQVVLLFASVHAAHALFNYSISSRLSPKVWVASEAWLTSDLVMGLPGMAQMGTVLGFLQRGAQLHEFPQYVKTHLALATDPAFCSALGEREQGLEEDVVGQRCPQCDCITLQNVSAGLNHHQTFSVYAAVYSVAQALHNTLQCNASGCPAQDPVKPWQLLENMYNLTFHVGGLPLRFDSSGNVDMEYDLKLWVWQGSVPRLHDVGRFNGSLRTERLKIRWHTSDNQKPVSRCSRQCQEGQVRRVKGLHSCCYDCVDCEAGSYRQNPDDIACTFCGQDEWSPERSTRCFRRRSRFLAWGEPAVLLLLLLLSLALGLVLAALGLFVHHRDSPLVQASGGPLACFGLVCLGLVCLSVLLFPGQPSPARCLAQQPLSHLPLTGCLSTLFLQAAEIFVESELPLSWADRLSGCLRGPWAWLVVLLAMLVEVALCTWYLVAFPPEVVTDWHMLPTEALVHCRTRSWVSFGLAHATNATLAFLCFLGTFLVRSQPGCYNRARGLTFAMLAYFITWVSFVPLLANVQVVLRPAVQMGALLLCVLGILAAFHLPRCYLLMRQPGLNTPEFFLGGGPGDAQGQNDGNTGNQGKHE

B1: thaumatin (protein)
chain: ATFEIVNRCSYTVWAAASKGDAALDAGGRQLNSGESWTINVEPGTKGGKIWARTDCYFDDSGSGICKTGDCGGLLRCKRFGRPPTTLAEFSLNQYGKDYIDISNIKGFNVPMDFSPTTRGCRGVRCAADIVGQCPAKLKAPGGGCNDACTVFQTSEYCCTTGKCGPTEYSRFFKRLCPDAFSYVLDKPTTVTCPGSSNYRVTFCPTA
modifications: Eight disulfides
notes: sweet-tasting plant protein, E957

Target: T1, human TAS1R2-WT/TAS1R3-F514L
Assay: Calcium mobilisation assay, TAS1R2-WT with TAS1R3 variant F514L
Assay type: cell-based
Conditions: for Max ΔF/F0: maximal signal amplitude
Text: The coding sequences for TAS1R2 and TAS1R3 were commercially synthesised, and the human codon was optimised for expression in human cells. The coding sequences of human TAS1R2 and TAS1R3 were subcloned and inserted into the mammalian expression vectors pcDNA6/myc-HisA and pcDNA4/myc-HisA (Invitrogen; Thermo Fisher Scientific; Illkirch, France) between the EcoRI and NotI restriction sites, generating the plasmids pcDNA6-TAS1R2 and pcDNA4-TAS1R3, respectively. To increase protein expression in mammalian cells, an upstream start codon was used, which was a sequence called MAX, corresponding to the QBI SP163 element also described in pcDNA4-HisMax (Invitrogen; Thermo Fisher Scientific; Illkirch, France). To measure the expression level of the receptor by immunohistochemistry, we used the FLAG sequence ([…]) in the C-terminal position, which encodes the FLAG tag epitope. SNP variants of TAS1R2 and TAS1R3 were constructed based on […], respectively, using site-directed mutagenesis (Genewiz; Leipzig, Germany).
The HEK293T cells were kindly provided by Jay P. Slack (Givaudan Flavors Corporation; Cincinnati, OH, USA). HEK293T cells stably transfected with Gα16gust44 [43, 67] were seeded in poly-D-lysine-coated clear-bottom black 96-well plates (0.35 × 10^5 cells/well) in high-glucose DMEM supplemented with 2 mM GlutaMAX, 10% dialysed foetal bovine serum with penicillin/streptomycin and G418 (400 μg/mL) at 37 °C and 6.3% CO2 in a humidified atmosphere as previously reported. […] As a negative control, HEK293T cells were mock-transfected with the empty expression vector. After a further 24 h of incubation, the HEK293T cells were washed with C1 buffer (130 mM NaCl, 5 mM KCl, 10 mM HEPES pH 7.4 and 2 mM CaCl2). The 96-well plates containing the cells were then stimulated with sweet-tasting compounds. […] Different concentration ranges were tested depending on the sweet compound injected. The Ca^2+ changes were expressed as fractional changes in fluorescent light intensity: ΔF/F = (F − F0)/F0, where F was the fluorescent light intensity at each point, and F0 was the value of emitted fluorescent light prior to stimulus application. To calculate dose–response relationships, the changes in fluorescence upon stimulus application were averaged, mock-subtracted and baseline-corrected. The dose–response data obtained were adjusted using a 4-parameter logistic equation. The half-maximal effective concentrations (EC50 values) and maximal signal amplitudes were calculated using SigmaPlot software (version 15.0) (Systat Software; San Jose, CA, USA).
For in vitro calcium mobilisation assay performed on hTAS1R2-SNPs, hTAS1R3-SNPs and mTAS1R3-I60T, 6 to 7 concentrations were tested for each sweet compound, plus buffer alone. All concentration–receptor combinations were measured in duplicate, and each experiment was repeated at least 4 times (8 wells/concentration). Results were expressed for each concentration as ΔF/F mean ± SEM and represented as dose–response curves.

| Molecule | R1 = Variant EC50/WT EC50 | Max ΔF/F0 | EC50 (read-out: EC50) [µM] | EC50 (brazzein) [µg/mL] |
| --- | --- | --- | --- | --- |
| CC1=CC(=O)NS(=O)(=O)O1 [Acesulfame K, acesulfame K] | 0.7 | 0.14 ± 0.01 | 442 ± 24 |  |
| O=S(=O)(O)NC1CCCCC1 [Cyclamate, cyclamate] |  |  | 1250 ± 30 |  |
| C[C@H](CC[C@@H](O[C@@H]1O[C@H](CO[C@@H]2O[C@H](CO)[C@@H](O)[C@H](O)[C@H]2O)[C@@H](O)[C@H](O)[C@H]1O[C@@H]1O[C@H](CO)[C@@H](O)[C@H](O)[C@H]1O)C(C)(C)O)[C@H]1CC[C@@]2(C)[C@@H]3CC=C4[C@@H](CC[C@H](O[C@@H]5O[C@H](CO[C@@H]6O[C@H](CO)[C@@H](O)[C@H](O)[C@H]6O)[C@@H](O)[C@H](O)[C@H]5O)C4(C)C)[C@]3(C)[C@H](O)C[C@]12C [Mogroside V, mogroside V] | 1.4 | 0.79 ± 0.02 | 44.7 ± 2.8 |  |
| COc1ccc(CCC(=O)c2c(O)cc(O[C@@H]3O[C@H](CO)[C@@H](O)[C@H](O)[C@H]3O[C@@H]3O[C@@H](C)[C@H](O)[C@@H](O)[C@H]3O)cc2O)cc1O [NHDC, neohesperidin dihydrochalcone] | 0.8 | 1.21 ± 0.08 | 37.9 ± 8.4 |  |
| COC(=O)[C@H](Cc1ccccc1)NC(=O)[C@H](CC(=O)O)NCCC(C)(C)C [Neotame] | 1.0 | 0.45 ± 0.01 | 1.23 ± 0.06 |  |
| C=C(C)[C@@H]1CC=C(/C=N/O)CC1 [Perillartine, perillartine] | 1.0 | 1.40 ± 0.24 | 13.9 ± 7.3 |  |
| C=C1C[C@@]23CC[C@H]4[C@@](C)(CCC[C@@]4(C)C(=O)O[C@@H]4O[C@H](CO)[C@@H](O)[C@H](O[C@@H]5O[C@H](CO)[C@@H](O)[C@H](O)[C@H]5O)[C@H]4O[C@@H]4O[C@H](CO)[C@@H](O)[C@H](O)[C@H]4O)[C@@H]2CC[C@]1(O[C@@H]1O[C@H](CO)[C@@H](O)[C@H](O[C@@H]2O[C@H](CO)[C@@H](O)[C@H](O)[C@H]2O)[C@H]1O[C@@H]1O[C@H](CO)[C@@H](O)[C@H](O)[C@H]1O)C3 [Rebaudioside M, rebaudioside M] | 0.8 | 0.64 ± 0.02 | 32.1 ± 2.5 |  |
| OC[C@H]1O[C@H](O[C@]2(CCl)O[C@H](CCl)[C@@H](O)[C@@H]2O)[C@H](O)[C@@H](O)[C@H]1Cl [Sucralose] | 1.3 | 0.49 ± 0.01 | 141 ± 3 |  |
| brazzein (QDKCKKVYENYPVSKCQLANQCNYDCKLDKHARSGECFYDEKRNLQCICDYCEY; ends and bridges not checked; cysteine pairing not given here; UniProt P56552 1-54, looked up) [sweet-tasting protein obtained by recombinant production using the yeast Pichia pastoris] | 0.4 | 1.07 ± 0.04 |  | 44.4 ± 6.4 |
| thaumatin | 0.9 | 0.72 ± 0.04 |  |  |
| B1 |  |  | 9.8 ± 1 |  |
